# Measured values taken from ChEMBL document CHEMBL3992502, “Structural optimization of diphenylpyrimidine derivatives (DPPYs) as potent Bruton's tyrosine kinase (BTK) inhibitors with improved activity toward B leukemia cell lines” (Eur J Med Chem, 2017).
# How the values were obtained:
# [1] = tested on: Ramos; assay: Cell cycle arrest in human Ramos cells assessed as accumulation at S phase at 10 uM after 48 hrs by propidium iodide staining based flow cytometry (reference value: 42.23%); type: functional
# [2] = tested on: Ramos; assay: Cell cycle arrest in human Ramos cells assessed as accumulation at G0/G1 phase at 10 uM after 48 hrs by propidium iodide staining based flow cytometry (reference value: 56.19%); type: functional
# [3] = tested on: Ramos; assay: Antiproliferative activity against human Ramos cells after 48 hrs by CCK-8 assay; type: functional, cell-based
# [4] = tested on: Ramos; assay: Induction of apoptosis in human Ramos cells assessed as necrotic cells at 10 uM after 48 hrs by Annexin V-FITC/propidium iodide staining based flow cytometry (reference value: 1%); type: functional
# [5] = tested on: Ramos; assay: Cell cycle arrest in human Ramos cells assessed as accumulation at G2/M phase at 10 uM after 48 hrs by propidium iodide staining based flow cytometry (reference value: 1.58%); type: functional
# [6] = tested on: Ramos; assay: Induction of apoptosis in human Ramos cells assessed as viable cells at 10 uM after 48 hrs by Annexin V-FITC/propidium iodide staining based flow cytometry (reference value: 94.3%); type: functional; details: read-out: Activity
# [7] = tested on: Ramos; assay: Induction of apoptosis in human Ramos cells assessed as early apoptotic cells at 10 uM after 48 hrs by Annexin V-FITC/propidium iodide staining based flow cytometry (reference value: 1.7%); type: functional
# [8] = tested on: Raji; assay: Antiproliferative activity against human Raji cells after 48 hrs by CCK-8 assay
# [9] = biological target: T1, Tyrosine-protein kinase BTK (Homo sapiens, UniProt Q06187); assay: Inhibition of N-terminal His-tagged full length human recombinant BTK expressed in baculovirus infected Sf9 insect cells using Poly (4:1 Glu, Tyr) peptide substrate incubated for 60 mins by ADP-Glo luminescence assay
# [10] = tested on: Ramos; assay: Induction of apoptosis in human Ramos cells assessed as late apoptotic cells at 10 uM after 48 hrs by Annexin V-FITC/propidium iodide staining based flow cytometry (reference value: 3%); type: functional
# [11] = tested on: Ramos; assay: Cell cycle arrest in human Ramos cells assessed as accumulation at S phase at 20 uM after 48 hrs by propidium iodide staining based flow cytometry (reference value: 42.23%); type: functional
# [12] = tested on: Ramos; assay: Induction of apoptosis in human Ramos cells assessed as viable cells at 20 uM after 48 hrs by Annexin V-FITC/propidium iodide staining based flow cytometry (reference value: 94.3%); type: functional; details: read-out: Activity
# [13] = tested on: Ramos; assay: Induction of apoptosis in human Ramos cells assessed as early apoptotic cells at 5 uM after 48 hrs by Annexin V-FITC/propidium iodide staining based flow cytometry (reference value: 1.7%); type: functional
# [14] = tested on: Ramos; assay: Induction of apoptosis in human Ramos cells assessed as viable cells at 5 uM after 48 hrs by Annexin V-FITC/propidium iodide staining based flow cytometry (reference value: 94.3%); type: functional; details: read-out: Activity
# [15] = biological target: T1, Tyrosine-protein kinase BTK; assay: Irreversible inhibition of N-terminal His-tagged full length human recombinant BTK expressed in baculovirus infected Sf9 insect cells using Poly (4:1 Glu, Tyr) peptide substrate assessed as luminescence of compound linked enzyme at 5000 nmol/L incubated for 60 mins by ADP-Glo kinase assay (reference value: 9976)
# [16] = tested on: Ramos; assay: Cell cycle arrest in human Ramos cells assessed as accumulation at G2/M phase at 5 uM after 48 hrs by propidium iodide staining based flow cytometry (reference value: 1.58%); type: functional
# [17] = tested on: Ramos; assay: Cell cycle arrest in human Ramos cells assessed as accumulation at G2/M phase at 20 uM after 48 hrs by propidium iodide staining based flow cytometry (reference value: 1.58%); type: functional
# [18] = tested on: Ramos; assay: Cell cycle arrest in human Ramos cells assessed as accumulation at G0/G1 phase at 20 uM after 48 hrs by propidium iodide staining based flow cytometry (reference value: 56.19%); type: functional
# [19] = tested on: Ramos; assay: Induction of apoptosis in human Ramos cells assessed as early apoptotic cells at 20 uM after 48 hrs by Annexin V-FITC/propidium iodide staining based flow cytometry (reference value: 1.7%); type: functional
# [20] = tested on: Ramos; assay: Induction of apoptosis in human Ramos cells assessed as late apoptotic cells at 20 uM after 48 hrs by Annexin V-FITC/propidium iodide staining based flow cytometry (reference value: 3%); type: functional
# [21] = tested on: Ramos; assay: Induction of apoptosis in human Ramos cells assessed as necrotic cells at 5 uM after 48 hrs by Annexin V-FITC/propidium iodide staining based flow cytometry (reference value: 1%); type: functional
# [22] = tested on: Ramos; assay: Induction of apoptosis in human Ramos cells assessed as late apoptotic cells at 5 uM after 48 hrs by Annexin V-FITC/propidium iodide staining based flow cytometry (reference value: 3%); type: functional
# [23] = tested on: PBMC; assay: Cytotoxicity against human PBMC assessed as change in cell morphology at <20 uM after 24 hrs by phase contrast microscopy; type: cell-based
# [24] = tested on: Ramos; assay: Cell cycle arrest in human Ramos cells assessed as accumulation at S phase at 5 uM after 48 hrs by propidium iodide staining based flow cytometry (reference value: 42.23%); type: functional
# [25] = tested on: Ramos; assay: Induction of apoptosis in human Ramos cells assessed as necrotic cells at 20 uM after 48 hrs by Annexin V-FITC/propidium iodide staining based flow cytometry (reference value: 1%); type: functional
# [26] = tested on: Ramos; assay: Cell cycle arrest in human Ramos cells assessed as accumulation at G0/G1 phase at 5 uM after 48 hrs by propidium iodide staining based flow cytometry (reference value: 56.19%); type: functional
# T1 sequence (Q06187 whole entry): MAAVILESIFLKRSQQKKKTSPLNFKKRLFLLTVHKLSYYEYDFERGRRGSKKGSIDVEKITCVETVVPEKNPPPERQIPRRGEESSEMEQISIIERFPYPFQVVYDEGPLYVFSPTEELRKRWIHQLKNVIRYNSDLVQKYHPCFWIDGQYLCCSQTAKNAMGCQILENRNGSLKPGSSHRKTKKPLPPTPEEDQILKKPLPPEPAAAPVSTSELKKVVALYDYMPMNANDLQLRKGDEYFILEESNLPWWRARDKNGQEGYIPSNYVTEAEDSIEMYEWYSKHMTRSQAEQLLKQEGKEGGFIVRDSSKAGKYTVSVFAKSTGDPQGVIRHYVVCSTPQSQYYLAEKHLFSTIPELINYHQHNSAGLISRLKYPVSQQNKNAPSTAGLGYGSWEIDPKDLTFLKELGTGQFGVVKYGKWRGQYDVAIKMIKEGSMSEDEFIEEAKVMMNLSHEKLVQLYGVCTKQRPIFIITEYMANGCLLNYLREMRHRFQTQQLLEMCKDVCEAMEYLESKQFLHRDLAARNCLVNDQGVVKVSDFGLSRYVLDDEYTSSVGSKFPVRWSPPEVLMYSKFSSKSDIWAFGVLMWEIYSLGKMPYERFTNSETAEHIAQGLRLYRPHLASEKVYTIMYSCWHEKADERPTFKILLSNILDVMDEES
smiles,measurement,setting,value
C=CC(=O)N1CCC[C@@H](n2nc(-c3ccc(Oc4ccccc4)cc3)c3c(N)ncnc32)C1 [IBRUTINIB],Activity,[1],53.5%
same,Activity,[2],46.35%
same,IC50,[3],12.6 µM
same,Activity,[4],0.1%
same,Activity,[5],0.15%
same,viability at 10 µM,[6],52%
same,Activity,[7],37%
C=CC(=O)Nc1cccc(Nc2nc(Nc3ccc(N(CCOC)CCOC)cc3)ncc2Cl)c1,IC50,[3],13 µM
same,IC50,[8],30.5 µM
same,IC50,[9],0.00494 µM
C=CC(=O)Nc1cccc(Nc2nc(Nc3ccc(OCCOC)cc3)ncc2F)c1 [SPEBRUTINIB],Activity,[1],47.9%
same,Activity,[10],20.4%
same,Activity,[2],31.02%
same,IC50,[3],20.9 µM
same,Activity,[4],4.3%
same,Activity,[5],20.91%
same,IC50,[8],29.4 µM
same,viability at 10 µM,[6],54%
same,Activity,[7],21.2%
C=CC(=O)Nc1cccc(Nc2nc(Nc3ccc(NC(=O)CN(CCOC)CCOC)cc3)ncc2Cl)c1,IC50,[3],14.8 µM
same,IC50,[8],19.9 µM
same,IC50,[9],0.0226 µM
C=CC(=O)Nc1cccc(Nc2nc(Nc3ccc(OCC4CCCO4)cc3)ncc2F)c1 (stereo not given),IC50,[3],22.3 µM
same,IC50,[8],38.6 µM
same,IC50,[9],0.0224 µM
C=CC(=O)Nc1cccc(Nc2nc(Nc3ccc(OCC(=O)OCC4CCCO4)cc3)ncc2Cl)c1 (stereo not given),IC50,[3],> 40 µM
same,IC50,[8],9.4 µM
same,IC50,[9],0.00023 µM
C=CC(=O)Nc1cccc(Nc2nc(Nc3ccc(N(CCOC)CCOC)cc3)ncc2F)c1,IC50,[3],18.1 µM
same,IC50,[8],23.8 µM
same,IC50,[9],0.00712 µM
C=CC(=O)Nc1cccc(Nc2nc(Nc3ccc(OCC(=O)N(CCOC)CCOC)c(Cl)c3)ncc2Cl)c1,IC50,[3],16.9 µM
same,IC50,[8],19.3 µM
same,IC50,[9],> 0.1 µM
C=CC(=O)Nc1cccc(Nc2nc(Nc3ccc(OCC4CCCO4)cc3)ncc2Cl)c1 (stereo not given),Activity,[1],37%
same,Activity,[11],28.39%
same,viability at 20 µM,[12],16.2%
same,Activity,[10],34.2%
same,Activity,[13],11%
same,viability at 5 µM,[14],50.1%
same,Activity,[15],383 RLU
same,Activity,[16],0%
same,Activity,[17],0.86%
same,Activity,[2],63%
same,Activity,[18],70.75%
same,IC50,[3],10.5 µM
same,Activity,[4],1.2%
same,Activity,[5],0%
same,IC50,[8],19.1 µM
same,Activity,[19],26.4%
same,Activity,[20],57.2%
same,Activity,[21],2.2%
same,Activity,[22],27%
same,viability at 10 µM,[6],50%
same,Activity,[7],12.6%
same,Activity,[23],Non-Toxic
same,Activity,[24],46.82%
same,IC50,[9],0.0121 µM
same,Activity,[25],0.1%
same,Activity,[26],53.18%
C=CC(=O)Nc1cccc(Nc2nc(Nc3ccc(OCC(=O)N(CCOC)CCOC)cc3)ncc2Cl)c1,IC50,[3],18.1 µM
same,IC50,[8],20.1 µM
same,IC50,[9],0.00283 µM
C=CC(=O)Nc1cccc(Nc2nc(Nc3ccc(OCC(=O)N(CCOC)CCOC)cc3)ncc2F)c1,IC50,[3],> 40 µM
same,IC50,[8],36 µM
same,IC50,[9],0.0272 µM
C=CC(=O)Nc1cccc(Nc2nc(Nc3ccc(NC(=O)CN(CCOC)CCOC)cc3)ncc2F)c1,IC50,[3],35.6 µM
same,IC50,[8],36.9 µM
same,IC50,[9],0.0913 µM
C=CC(=O)Nc1cccc(Nc2nc(Nc3ccc(NC(=O)CN(CCOC)CCOC)c(C)c3)ncc2Cl)c1,IC50,[3],19.6 µM
same,IC50,[8],35.6 µM
same,IC50,[9],0.02 µM
C=CC(=O)Nc1cccc(Nc2nc(Nc3ccc(NC(=O)CN(CCOC)CCOC)c(OC)c3)ncc2Cl)c1,IC50,[3],11 µM
same,IC50,[8],20.9 µM
same,IC50,[9],> 0.1 µM
